The values below come from patent publication EP3318253B1, “COMPOSITIONS COMPRISING WNT INHIBITORS FOR TREATING CANCER” (Schmidt-Wolf, Ingo, priority 2010, dated 2012).

One data set deals with Raji. Briefly: Cell viability by DiOC6 staining, flow cytometry. The data set is classed as cell-based. Particulars: Homo sapiens. The procedure:
(§1) Experiments were performed as reported recently.
(§2) PBL derived from healthy individuals were used as controls. […] ND, not done.

The next data set relates to SU-DHL 4. Nature of the data set: Cell viability by DiOC6 staining, flow cytometry. It is filed as cell-based. Particulars: Homo sapiens. The procedure: as §1, §2
The next data set deals with OCI-Ly8 LAM53. Nature of the data set: Cell viability by DiOC6 staining, flow cytometry. It is filed as cell-based. The conditions noted are these: Homo sapiens. The procedure:
as §1, §2

The next data set deals with RPMI 8226. Briefly: Cell viability by DiOC6 staining, flow cytometry. The data set is classed as cell-based. Particulars: Homo sapiens, 72 h, 1x10^5 cells cultured three days, various concentrations. How it is done:
as §1, §2
A general note: In flow cytometry, cells or beads pass a laser one at a time.

In the next data set the test system is U266. Briefly: Cell viability by DiOC6 staining, flow cytometry. Particulars: Homo sapiens, U-266, 72 h, 1x10^5 cells cultured three days, various concentrations. The data set is classed as cell-based. How it is done:
as §1, §2

A further data set relates to MPC11 myeloma cells. Particulars: 750 µg lenalidomide/day. How it is done:
All animal experiments were done at least in duplicate with groups of 6 BALB/c mice (Charles River, Sulzfeld, Germany). 5x10^5 MCP11 murine myeloma cells were injected per mouse subcutaneously into Balb/c mice. […] Overall survival and tumor growth were measured. Tumor volume was calculated as follows: volume = length x width^2 x 0,52. Animals were killed when tumor volume reached 2000 mm^3.
• Figure 1. […] 1x10^5 cells were cultured with different compounds for three days. The concentration of thalidomide was U266 160µM for U266, RPMI 20µM for RPMI, and OPM 40µM for OPM cells. Then cell viability was measured by DIOC6 staining in flow cytometry. Results represent data from three, two and five separate experiments, respectively. Separate U266 n=3, RPMI n=2, OPM n=5 experiments. Data are shown as mean ± SD. • Figure 2. […] 1x10^5 OPM cells were cultured with the different compounds for three days. The concentration of lenalidomide was 12µM for OPM and 80µM for RPMI cells. Then cell viability was measured by DIOC6 staining in flow cytometry. Results represent data from eight and five OPM n=8, RPMI n=5 separate experiments, respectively. Data are shown as mean ± SD. • Figure 3. […] (A) Flow cytometric results. […] Western Blot analysis for the detection of β-catenin in myeloma cell lines under normal conditions. The myeloma cell lines RPMI 8226, KMS-18 and U266 were analyzed according to their β-catenin expression. • Figure 4B. […] As primary antibodies purified mouse anti-β-catenin and β-actin were used at a dilution of 1:1000 and as secondary antibody served goat anti-mouse IgG-HRP at a dilution of 1:5000. Finally, ECL reagent was utilized for detection. • Figure 4C. […] As primary antibodies Purified mouse anti-β-catenin and β-actin were used at a dilution of 1:1000 and as secondary antibody served goat anti-mouse IgG-HRP at a dilution of 1:5000. Finally, ECL reagent was utilized for detection. • Figure 5. […] Results represent data from two separate experiments. Data are shown as mean. • Figure 6. […] BALB/c mice were injected with 5x10^5 MPC11 myeloma cells subcutaneously. (A) Tumor growth and (B) overall survival were measured. Six animals were assayed per group.
All animal experiments were done at least in duplicate with groups of 6 BALB/c mice (Charles River, Sulzfeld, Germany). 5x10^5 MCP11 murine myeloma cells were injected per mouse subcutaneously into Balb/c mice. Mice were treated orally with 450µg/day CIC and 750 µg lenalidomide/day, respectively. Overall survival and tumor growth were measured. Tumor volume was calculated as follows: volume = length x width^2 x 0,52. Animals were killed when tumor volume reached 2000 mm^3.
• Figure 7. […] 1x10^5 cells were cultured with different compounds for three days. The concentration of thalidomide was U266 160µM for U266, RPMI 20µM for RPMI, and OPM 40µM for OPM cells. Then cell viability was measured by DIOC6 staining in flow cytometry. Results represent data from three, two and five separate experiments, respectively. Separate U266 n=3, RPMI n=2, OPM n=5 experiments. Data are shown as mean ± SD. • Figure 8. […] 1x10^5 OPM cells were cultured with the different compounds for three days. The concentration of lenalidomide was 12µM for OPM and 80µM for RPMI cells. Then cell viability was measured by DIOC6 staining in flow cytometry. Results represent data from eight and five OPM n=8, RPMI n=5 separate experiments, respectively. Data are shown as mean ± SD. • Figure 9. […] (A) Flow cytometric results. (B) We analyzed the effect of CIC on the Wnt/beta catenin pathway by Western blot. • Figure 10A. Western Blot analysis for the detection of β-catenin in myeloma cell lines under normal conditions. The myeloma cell lines RPMI 8226, KMS-18 and U266 were analyzed according to their β-catenin expression. • Figure 10B.

The nature of data set [1]: Cell viability by DiOC6 staining, flow cytometry (normal control cells). The data set is classed as cell-based, human. Particulars: human; control of PBMC; after 72 h; read-out: relative viability. The procedure: PBMCs were isolated from blood of healthy donors by Ficoll-Hypaque density gradient centrifugation. Blood from buffy coats was mixed 1:2 with PBS/1% BSA (both PAA, Cölbe, Germany) and used for a ficoll gradient (LymphoPrep, PAA, Cölbe, Germany). After the centrifugation at 800 g for 30 minutes, the leukocyte layer was removed and transferred to new tubes. Subsequently, these cells were washed 3 times with PBS/1%BSA and re-suspended in fresh medium, consisting of RPMI medium (PAA, Cölbe, Germany) with 10% fetal calf serum (Invitrogen, Karlsruhe, Germany), 2.5% hepes buffer solution (PAA, Cölbe, Germany), and 1% penicillin/streptomycin (PAA, Cölbe, Germany).
as §1

In a further data set the target is LEF-1 protein (Homo sapiens, UniProt Q9UJU2). Particulars: immune co-precipitation; destabilizes the LEF-1/β-catenin complex; cited from earlier work.
Chain of LEF-1 protein (Q9UJU2 whole entry): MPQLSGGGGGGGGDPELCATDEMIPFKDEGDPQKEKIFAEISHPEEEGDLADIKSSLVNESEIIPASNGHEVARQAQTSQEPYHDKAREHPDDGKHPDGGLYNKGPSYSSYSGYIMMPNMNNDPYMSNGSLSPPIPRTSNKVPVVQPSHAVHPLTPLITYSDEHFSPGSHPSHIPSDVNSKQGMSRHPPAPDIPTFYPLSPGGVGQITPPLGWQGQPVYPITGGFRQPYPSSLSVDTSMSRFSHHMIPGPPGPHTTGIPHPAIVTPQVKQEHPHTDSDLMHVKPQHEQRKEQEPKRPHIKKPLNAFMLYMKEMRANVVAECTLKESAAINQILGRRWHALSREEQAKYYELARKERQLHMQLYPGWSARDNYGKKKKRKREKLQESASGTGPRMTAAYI
Data set [2] concerns Wnt/β-catenin target genes, including LEF-1, cyclin D1 and fibronectin. Particulars: CLL cells exposed to EA; cited from earlier work.

Read-outs that look alike come from different tables or passages of the source.

In the case of `Cc1cc(C2CCCCC2)n(O)c(=O)c1` [CIC, ciclopirox olamine], the IC50 (in general, the point on the concentration scale where inhibition reaches its midpoint) is 6 µM with Raji (after 72 h); 7 µM in the data set on SU-DHL 4 (SU-DHL-4, after 72 h); 2 µM in the data set on OCI-Ly8 LAM53 (OCI-Ly8, LAM-53, after 72 h); 6 µM with RPMI 8226; 6 µM with U266. Moreover, the Tumor growth entry with MPC11 myeloma cells (oral 450µg/day CIC, compared to control mice) was “significantly reduced”.
Take `C=C(CC)C(=O)c1ccc(OCC(=O)O)c(Cl)c1Cl` [EA, 2-[2,3-dichloro-4-(2-methylidenebutanoyl)phenoxy] acetic acid]: the IC50 came out at 33 µM in the data set with Raji (72 h, 1x10^5 cells cultured three days, various concentrations); 58 µM in the data set on SU-DHL 4 (72 h, SU-DHL 4, 1x10^5 cells cultured three days, various concentrations); 57 µM in the data set with OCI-Ly8 LAM53 (72 h, OCI-Ly8 LAM53, 1x10^5 cells cultured three days, various concentrations); 8 µM with RPMI 8226; 60 µM with U266. For the same molecule, the viability (in general, a per cent measure of how many cells are alive, often set against a control) at 72 h, 30 µM in [1] stood at 89.5 ± 3.1%. Also, in the data set on MPC11 myeloma cells (oral 450µg/day EA, compared to mice treated with lenalidomide alone, p<0.001), the Tumor growth result is reported as “significantly reduced”. Further, on LEF-1 protein, the “binding to LEF-1 protein” value is listed as “directly bind”. Moreover, in [2], the “expression of Wnt/β-catenin target genes” value is reported as “decreased”.
